Measured values reported in patent US12377104B1, “Methods for treating a fatty liver disease” (Madrigal Pharmaceuticals, Inc., priority 2024, dated 2025).

Test: Resmetirom exposure parameters by dose, quartile and body weight
Type: in vivo, human
Protocol: Various body weight cutoffs for dosing were evaluated.

CC(C)c1cc(Oc2c(Cl)cc(-n3nc(C#N)c(=O)[nH]c3=O)cc2Cl)n[nH]c1=O [Resmetirom, 2-(3,5-dichloro-4-((5-isopropyl-6-oxo-1,6-dihydropyridazin-3-yl)oxy)phenyl)-3,5-dioxo-2,3,4,5-tetrahydro-1,2,4-triazine-6-carbonitrile]
Cmin,ss Geometric Mean (80 mg, 80-<90 kg): 20.7 ng/mL
Cmin,ss Mean (80 mg, 80-<90 kg): 55.9 ng/mL
Cmin,ss Median (80 mg, 80-<90 kg): 18.4 ng/mL
t1/2α Geometric Mean (80 mg, 80-<90 kg): 1.21 h
t1/2α Mean (80 mg, 80-<90 kg): 1.34 h
t1/2α Median (80 mg, 80-<90 kg): 1.24 h
t1/2β Geometric Mean (80 mg, 80-<90 kg): 5.15 h
t1/2β Mean (80 mg, 80-<90 kg): 6.04 h
t1/2β Median (80 mg, 80-<90 kg): 4.41 h
Cmin,ss Geometric Mean (80 mg, 90-<100 kg): 14.2 ng/mL
Cmin,ss Mean (80 mg, 90-<100 kg): 52.0 ng/mL
Cmin,ss Median (80 mg, 90-<100 kg): 12.0 ng/mL
t1/2α Geometric Mean (80 mg, 90-<100 kg): 1.10 h
t1/2α Mean (80 mg, 90-<100 kg): 1.21 h
t1/2α Median (80 mg, 90-<100 kg): 1.02 h
t1/2β Geometric Mean (80 mg, 90-<100 kg): 4.81 h
t1/2β Mean (80 mg, 90-<100 kg): 5.50 h
t1/2β Median (80 mg, 90-<100 kg): 4.29 h
Cmin,ss Geometric Mean (80 mg, 100-<110 kg): 13.2 ng/mL
Cmin,ss Mean (80 mg, 100-<110 kg): 37.3 ng/mL
Cmin,ss Median (80 mg, 100-<110 kg): 14.1 ng/mL
t1/2α Geometric Mean (80 mg, 100-<110 kg): 1.12 h
t1/2α Mean (80 mg, 100-<110 kg): 1.26 h
t1/2α Median (80 mg, 100-<110 kg): 1.12 h
t1/2β Geometric Mean (80 mg, 100-<110 kg): 4.99 h
t1/2β Mean (80 mg, 100-<110 kg): 5.86 h
t1/2β Median (80 mg, 100-<110 kg): 4.50 h
Cmin,ss Geometric Mean (80 mg, <80 kg): 26.7 ng/mL
Cmin,ss Mean (80 mg, <80 kg): 72.8 ng/mL
Cmin,ss Median (80 mg, <80 kg): 25.5 ng/mL
t1/2α Geometric Mean (80 mg, <80 kg): 1.13 h
t1/2α Mean (80 mg, <80 kg): 1.27 h
t1/2α Median (80 mg, <80 kg): 1.15 h
t1/2β Geometric Mean (80 mg, <80 kg): 5.03 h
t1/2β Mean (80 mg, <80 kg): 5.44 h
t1/2β Median (80 mg, <80 kg): 4.53 h
Percentage of Cave,ss in quartile (80 mg; Q1: [20-155) ng/mL): 31%
Percentage of Cave,ss in quartile (80 mg; Q2: [155-219) ng/mL): 31%
Percentage of Cave,ss in quartile (80 mg; Q3: [219-321) ng/mL): 22%
Percentage of Cave,ss in quartile (80 mg, Q4: [321-1326] ng/mL): 17%
Cmin,ss Geometric Mean (80 mg, ≥110 kg): 11.5 ng/mL
Cmin,ss Mean (80 mg, ≥110 kg): 26.0 ng/mL
Cmin,ss Median (80 mg, ≥110 kg): 9.77 ng/mL
t1/2α Geometric Mean (80 mg, ≥110 kg): 1.16 h
t1/2α Mean (80 mg, ≥110 kg): 1.30 h
t1/2α Median (80 mg, ≥110 kg): 1.11 h
t1/2β Geometric Mean (80 mg, ≥110 kg): 4.94 h
t1/2β Mean (80 mg, ≥110 kg): 5.30 h
t1/2β Median (80 mg, ≥110 kg): 4.45 h
Cmin,ss Geometric Mean (100 mg, 80-<90 kg): 32.0 ng/mL
Cmin,ss Mean (100 mg, 80-<90 kg): 100 ng/mL
Cmin,ss Median (100 mg, 80-<90 kg): 22.2 ng/mL
t1/2α Geometric Mean (100 mg, 80-<90 kg): 1.16 h
t1/2α Mean (100 mg, 80-<90 kg): 1.30 h
t1/2α Median (100 mg, 80-<90 kg): 1.08 h
t1/2β Geometric Mean (100 mg, 80-<90 kg): 5.58 h
t1/2β Mean (100 mg, 80-<90 kg): 7.13 h
t1/2β Median (100 mg, 80-<90 kg): 4.43 h
Cmin,ss Geometric Mean (100 mg, 90-<100 kg): 41.7 ng/mL
Cmin,ss Mean (100 mg, 90-<100 kg): 113 ng/mL
Cmin,ss Median (100 mg, 90-<100 kg): 51.0 ng/mL
t1/2α Geometric Mean (100 mg, 90-<100 kg): 1.39 h
t1/2α Mean (100 mg, 90-<100 kg): 1.54 h
t1/2α Median (100 mg, 90-<100 kg): 1.37 h
t1/2β Geometric Mean (100 mg, 90-<100 kg): 6.21 h
t1/2β Mean (100 mg, 90-<100 kg): 8.49 h
t1/2β Median (100 mg, 90-<100 kg): 5.29 h
Cmin,ss Geometric Mean (100 mg, 100-<110 kg): 26.5 ng/mL
Cmin,ss Mean (100 mg, 100-<110 kg): 65.4 ng/mL
Cmin,ss Median (100 mg, 100-<110 kg): 22.1 ng/mL
t1/2α Geometric Mean (100 mg, 100-<110 kg): 1.14 h
t1/2α Mean (100 mg, 100-<110 kg): 1.30 h
t1/2α Median (100 mg, 100-<110 kg): 1.34 h
t1/2β Geometric Mean (100 mg, 100-<110 kg): 5.55 h
t1/2β Mean (100 mg, 100-<110 kg): 7.08 h
t1/2β Median (100 mg, 100-<110 kg): 4.65 h
Cmin,ss Geometric Mean (100 mg, <80 kg): 31.4 ng/mL
Cmin,ss Mean (100 mg, <80 kg): 119 ng/mL
Cmin,ss Median (100 mg, <80 kg): 29.7 ng/mL
